Data taken from patent publication US20020115661A1, “Method for treating chronic obstructive pulmonary disease” (priority 2000, published 2002).

Assays:
[1] = tested on: healthy subjects; assay: Tolerance and safety in Phase 1 studies in healthy subjects; format: in vivo, human
[2] = tested on: chronic hypoxia-induced pulmonary hypertension and RV hypertrophy; assay: Pulmonary hypertension and right ventricular hypertrophy in rats exposed to chronic hypoxia; format: in vivo, rat; details: for average MPAP: hypoxic rats, days 10-20 of hypoxia
Text: Rats were exposed to hypoxia for an additional 10 days during treatment (20 days total). A separate group of age-matched rats treated with diet alone (20 days) and no exposure to hypoxia served as normoxic controls. Blood samples, pulmonary artery pressures, and cardiac right and left ventricles were collected at the end of the 20-day protocol.
Rats exposed to 20 days of hypoxia had MPAP of 43±2 mm Hg which averaged 30 mm Hg higher than normal (13±0 mm Hg).
Heparinized plasma samples were collected approximately 1 hour before MPAP was measured.
The right ventricular hypertrophic response to hypoxia was estimated by comparing the ratio of right ventricular free wall weight to left ventricle plus septum weight (RV/LV+S) between hypoxic and normoxic control groups. Using this index, rats exposed to hypoxia had right ventricular free walls that were more than twice control (0.57±0.03 versus 0.24±0.1).

[3] = Octanol-aqueous partition coefficient, shake-flask method with HPLC; format: physicochemical
Description: Partition Coefficient: The octanol-aqueous partition coefficient at various pH values was determined by the shake-flask method using HPLC for measurement of the amount of compound in each phase.

[4] = PO bioavailability in monkeys; details: monkey, in vivo
[5] = Distribution, plasma protein binding and excretion; format: in vivo
[6] = target: T1, rat ETB receptors (Rattus norvegicus, UniProt P21451); assay: [125I]ET-3 binding, membranes from rat cerebellum
T1 construct: from tissue
T1 sequence (P21451 27-442): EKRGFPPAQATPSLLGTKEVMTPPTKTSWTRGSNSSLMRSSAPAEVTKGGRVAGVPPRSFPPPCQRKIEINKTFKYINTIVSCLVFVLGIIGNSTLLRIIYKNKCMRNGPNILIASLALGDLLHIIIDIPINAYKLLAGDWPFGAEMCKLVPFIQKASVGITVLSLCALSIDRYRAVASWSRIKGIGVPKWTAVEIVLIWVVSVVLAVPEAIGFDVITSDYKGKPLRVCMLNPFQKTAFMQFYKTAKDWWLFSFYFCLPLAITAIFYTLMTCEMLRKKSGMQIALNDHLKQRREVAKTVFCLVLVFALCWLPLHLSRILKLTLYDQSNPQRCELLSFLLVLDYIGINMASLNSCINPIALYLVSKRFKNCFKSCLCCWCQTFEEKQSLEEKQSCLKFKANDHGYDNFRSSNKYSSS
Text: Relative binding activities are given below in TABLE 3.

[7] = tested on: anesthetized dogs; assay: Pulmonary function in anesthetized dogs; format: in vivo, dog
Description: Each animal received each treatment and served as its own control, with 7 days between treatments. […] Pulmonary function parameters were evaluated for 60 minutes after each dose, and included minute volume, respiratory rate, resistance, compliance, peak inspiratory and expiratory volumes, and tidal volume. Indirect blood pressure measurements were made periodically throughout the pulmonary data collection period since endothelin receptor antagonists are known to induce hypotension.
Plasma concentration in this dog 5 minutes postdose was 1960 μg/mL.

[8] = anesthetized dogs, 30 or 60 mg/kg

Q: What does the source list for `CCc1cc(C2=C(C(=O)[O-])N(c3ccccc3C(F)(F)F)S(=O)(=O)c3ccccc32)cc2c1OCO2.[K+]` [CI-1034, 4-(7-Ethyl-1,3-benzodioxol-5-yl)-2-[2-(trifluoromethyl)phenyl]-2H-1 ,2-benzothiazine-3-carboxylic acid 1,1-dioxide monopotassium salt]?
A: QTc intervals [1]: No prolonged QTc intervals; most frequent adverse events [1]: headache, somnolence, nausea, and dyspepsia; serious adverse events [1]: no treatment-related serious adverse events; changes in C-reactive protein ([1]; Study 1034-001): no significant changes; tolerance ([1]; single 400 mg dose with single 2-mg dose of midazolam syrup, Study 1034-005): well-tolerated; tolerance ([1]; single 150-mg doses with or without a high-fat breakfast, Study 1034-004): well-tolerated; tolerance ([1]; single doses up to 400 mg, Study 1034-001): well-tolerated; laboratory abnormalities ([1]; sporadic and transient): unrelated to CI-1034 administration; intensity of adverse reactions ([1]; transient): mild or moderate; EC50 ([2]; Rattus norvegicus, simple Emax model, chronic hypoxia, read-out: plasma concentration predicted to produce half-maximal effect): 0.32 ± 0.25 µg/mL; average MPAP ([2]; 25 mg/kg/day in diet): 37±2 mm Hg; average MPAP ([2]; 50 mg/kg/day in diet): 33±0 mm Hg; average MPAP ([2]; 100 mg/kg/day in diet): 29±2 mm Hg; predicted maximal antihypertensive effect ([2]; simple Emax model, chronic hypoxia): 60%±18%; logD ([3]; pH 1, 0.1N Hydrochloric Acid): 3.24; logD ([3]; pH 4, 0.05 M Sodium Acetate Buffer): 2.93; logD ([3]; pH 7.4, 0.05 M Potassium Phosphate Buffer): 0.56; bioavailability [4]: ~10%; tissue distribution of radioequivalents ([5]; highest concentrations in liver and blood): not widely distributed; plasma protein binding ([5]; in vivo): highly bound; IC50 [6]: 230 nM; effects on pulmonary function ([7]; anesthetized dog, 40 mg/kg intravenous, one animal): No effects were apparent; pulmonary finding ([7]; anesthetized dog, 180 mg/kg intravenous, within 5 minutes postdose, one animal): Respiratory arrest; effect on blood pressure [7, 8]: no significant effect; effect on minute volume, pulmonary resistance, or pulmonary compliance [7, 8]: no effect; histopathology, lungs ([7]; dog that died after 180 mg/kg): marked bilateral diffuse congestion; histopathology, coronary arteries ([7]; dog that died after 180 mg/kg, mild, primarily right coronary arteries): Arteriopathy; mortality ([7]; dog, 180 mg/kg intravenous, one animal): found dead on Day 3
